Target: H1047R PIK3CA enzyme (Homo sapiens, UniProt P42336, H1047R)
Assay: ADP-Glo Biochemical PIK3CA Kinase Assay

H1047R PIK3CA enzyme, sequence (P42336 whole entry H1047R): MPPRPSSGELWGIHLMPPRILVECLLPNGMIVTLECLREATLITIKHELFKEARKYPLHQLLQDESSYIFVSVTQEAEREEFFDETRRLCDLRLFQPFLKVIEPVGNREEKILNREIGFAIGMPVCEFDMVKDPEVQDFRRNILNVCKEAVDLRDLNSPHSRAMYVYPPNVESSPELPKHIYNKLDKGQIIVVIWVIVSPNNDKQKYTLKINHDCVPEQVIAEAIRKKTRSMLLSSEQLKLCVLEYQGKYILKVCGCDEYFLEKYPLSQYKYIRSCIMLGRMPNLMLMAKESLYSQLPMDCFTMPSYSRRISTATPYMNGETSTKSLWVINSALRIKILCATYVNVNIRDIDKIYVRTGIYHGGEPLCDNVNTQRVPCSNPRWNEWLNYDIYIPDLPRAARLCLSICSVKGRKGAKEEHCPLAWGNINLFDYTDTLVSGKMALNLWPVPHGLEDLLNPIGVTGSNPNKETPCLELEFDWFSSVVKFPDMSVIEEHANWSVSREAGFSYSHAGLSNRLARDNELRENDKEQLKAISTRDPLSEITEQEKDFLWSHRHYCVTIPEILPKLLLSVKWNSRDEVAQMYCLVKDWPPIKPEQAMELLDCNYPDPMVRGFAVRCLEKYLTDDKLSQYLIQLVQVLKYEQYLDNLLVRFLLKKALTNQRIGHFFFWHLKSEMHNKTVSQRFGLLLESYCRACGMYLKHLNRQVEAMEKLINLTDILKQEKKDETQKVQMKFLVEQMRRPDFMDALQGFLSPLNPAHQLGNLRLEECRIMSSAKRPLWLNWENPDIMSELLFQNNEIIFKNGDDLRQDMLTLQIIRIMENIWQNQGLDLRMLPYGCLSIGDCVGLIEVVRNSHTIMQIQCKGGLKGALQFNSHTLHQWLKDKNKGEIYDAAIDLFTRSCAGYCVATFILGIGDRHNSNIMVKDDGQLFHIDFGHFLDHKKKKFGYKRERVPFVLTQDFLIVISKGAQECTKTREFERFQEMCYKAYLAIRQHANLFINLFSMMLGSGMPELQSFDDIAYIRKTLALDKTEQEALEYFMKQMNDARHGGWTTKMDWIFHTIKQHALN
H1047R PIK3CA enzyme, sequence (P27986 whole entry partner): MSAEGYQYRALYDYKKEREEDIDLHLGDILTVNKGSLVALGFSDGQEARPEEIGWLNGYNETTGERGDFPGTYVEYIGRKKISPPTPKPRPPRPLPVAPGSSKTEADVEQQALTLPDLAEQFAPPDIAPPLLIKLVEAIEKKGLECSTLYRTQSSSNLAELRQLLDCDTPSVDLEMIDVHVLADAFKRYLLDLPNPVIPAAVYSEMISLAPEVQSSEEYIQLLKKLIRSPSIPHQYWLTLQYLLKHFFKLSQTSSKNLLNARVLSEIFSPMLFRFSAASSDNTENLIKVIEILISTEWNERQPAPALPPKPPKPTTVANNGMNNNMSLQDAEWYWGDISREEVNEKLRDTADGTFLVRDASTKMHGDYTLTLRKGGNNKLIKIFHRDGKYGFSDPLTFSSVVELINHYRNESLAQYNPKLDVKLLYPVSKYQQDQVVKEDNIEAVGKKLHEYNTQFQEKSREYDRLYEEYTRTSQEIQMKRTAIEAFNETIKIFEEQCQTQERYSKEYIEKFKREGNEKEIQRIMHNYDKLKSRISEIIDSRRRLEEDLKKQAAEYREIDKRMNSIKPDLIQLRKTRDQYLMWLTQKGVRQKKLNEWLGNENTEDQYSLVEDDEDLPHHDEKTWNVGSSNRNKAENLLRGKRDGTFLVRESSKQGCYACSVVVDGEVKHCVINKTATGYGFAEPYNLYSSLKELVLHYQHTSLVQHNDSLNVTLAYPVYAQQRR

Compound | IC50
O=C1N[C@H](c2cc(F)ccc2Cl)c2c(NC(=O)N3C[C@@H](O)c4cc(F)ccc43)cc(-n3nccn3)cc21 (single isomer, unassigned) [Compound I-2345] | 1000 to 10000 nM
CC(C)(CN)n1cc(-c2cc(NC(=O)N3C[C@@](O)(C(F)(F)F)c4cc(F)ccc43)c3c(c2)C(=O)N[C@H]3c2cc(F)ccc2Cl)cn1 (single isomer, unassigned) [Compound I-2651] | 1000 to 10000 nM
Cc1cnccc1-c1cc(NC(=O)c2cc(F)cc(Cl)c2)c2c(n1)C(=O)NC2c1cc(F)ccc1Cl (centres unmarked) [Compound I-503] | ≤ 100 nM
O=C1N[C@@H](c2cc(F)ccc2Cl)c2c(NC(=O)N3C[C@@](O)(C(F)(F)F)c4cc(F)ccc43)cc(N3CCOC3=O)cc21 (single isomer, unassigned) [Compound I-2675] | 1000 to 10000 nM
O=C(Nc1cc(Br)cc2c1[C@H](c1cc(Cl)cc(F)c1F)NC2=O)c1cc(F)cc(C(F)(F)F)c1 [Compound I-786] | ≤ 100 nM
O=C1NC(c2cc(F)ccc2Cl)c2c(OC3CCOc4ccccc43)cc(-c3ccc4ncnn4c3)cc21 (centres unmarked) [Compound I-2043] | 10000 to 100000 nM
O=C(Nc1cc(-c2ccc3nc(C(F)F)nn3c2)cc2c1C(c1cc(F)ccc1Cl)NC2=O)c1cc(F)cc(C(F)(F)F)c1 (centres unmarked) [Compound I-1938] | ≤ 100 nM
CNC(=O)c1cc(NC(=O)c2nsc3ccccc23)c2c(c1)C(=O)N[C@H]2c1ccccc1C [Compound I-163] | ≤ 100 nM
O=C(Nc1cc(-c2ccc3c(c2)OCCCO3)cc2c1C(c1cc(F)ccc1Cl)NC2=O)c1cc(F)cc(C(F)(F)F)c1 (centres unmarked) [Compound I-851] | ≤ 100 nM
O=C(Nc1cccc2c1C(C1CCCCC1)NC2=O)c1cc(F)cc(C(F)(F)F)c1 (centres unmarked) [Compound I-1611] | 1000 to 10000 nM
Cc1ccccc1C1NC(=O)Oc2cccc(Br)c21 (centres unmarked) [Compound I-10] | 10000 to 100000 nM
O=C1NC(c2cc(F)ccc2Cl)c2c(NC(=O)C3CCC3)cc(-c3ccc4ncnn4c3)cc21 (centres unmarked) [Compound I-1778] | 10000 to 100000 nM
N#Cc1ccc(C(F)(F)F)c(NC(=O)Nc2cc(Br)cc3c2C(c2cc(F)ccc2Cl)NC3=O)c1 (centres unmarked) [Compound I-1051] | 1000 to 10000 nM
N#Cc1cnn(-c2cc(NC(=O)N3CC(O)c4cc(F)ccc43)c3c(c2)C(=O)NC3c2cc(F)ccc2Cl)c1 (centres unmarked) [Compound I-2404] | 100 to 500 nM
O=C1NC(c2cc(F)ccc2Cl)c2c(NC(=O)N3CCCC3)cc(Br)cc21 (centres unmarked) [Compound I-481] | 10000 to 100000 nM
O=C1N[C@H](c2cc(F)ccc2Cl)c2c(NC(=O)C3(c4cc(F)cc(C(F)(F)F)c4)CCCC3)cc(Br)cc21 [Compound I-2070] | 10000 to 100000 nM
Cc1ccccc1C1NC(=O)c2cccc(NC(=O)c3coc4c(F)cc(F)cc34)c21 (centres unmarked) [Compound I-58] | 100 to 500 nM
O=C1NC(c2cc(F)ccc2Cl)c2c(/C=C/c3ccccc3)cccc21 (centres unmarked) [Compound I-2106] | 10000 to 100000 nM

Other lines, results leading:

IC50 | Compound
10000 to 100000 nM | CC(C)(O)c1cc(F)cc(C(=O)Nc2cccc3c2C(c2cc(F)ccc2Cl)NC3=O)c1 (centres unmarked) [Compound I-627]
500 to 1000 nM | O=C(Nc1cc(Br)cc2c1C(c1cc(F)ccc1Cl)NC2=O)c1cc(F)cc(CF)c1 (centres unmarked) [Compound I-1119]
≤ 100 nM | N#CC[C@H](O)c1cc(NC(=O)c2cc(F)cc(C(F)(F)F)c2)c2c(c1)C(=O)N[C@H]2c1cc(F)ccc1Cl (single isomer, unassigned) [Compound I-1394]
≤ 100 nM | O=C(Nc1cc(OC2CCCOC2)cc2c1C(c1cc(F)ccc1Cl)NC2=O)c1cc(F)cc(C(F)(F)F)c1 (racemic) [Compound I-1239]
≤ 100 nM | O=C(Nc1cc(-c2ccc3nnnn3c2)cc2c1C(c1cc(F)ccc1Cl)NC2=O)c1cc(F)cc(C(F)(F)F)c1 (centres unmarked) [Compound I-1374]
1000 to 10000 nM | O=C(Nc1cc(Br)cc2c1C(c1cc(F)ccc1Cl)NC2=O)c1cccc(C(F)(F)F)n1 (centres unmarked) [Compound I-567]
≤ 100 nM | CS(=O)(Cc1cc(NC(=O)c2cc(F)cc(C(F)(F)F)c2)c2c(c1)C(=O)NC2c1cc(F)ccc1Cl)=NC#N (centres unmarked) [Compound I-1312]
1000 to 10000 nM | CCC[C@]1(O)CN(C(=O)Nc2cccc3c2[C@@H](c2cc(F)ccc2Cl)NC3=O)c2ccc(F)cc21 (single isomer, unassigned) [Compound I-2456]

From patent US12581252B2, “Substituted pyrrolo[3,4-b]pyridines as PI3K-α inhibitors” (Relay Therapeutics, Inc., priority 2020, dated 2026)
